Experimental findings from patent publication US20260315464A1, “COMPOSITIONS, METHODS, AND SYSTEMS FOR MODULATING SPLICING OF MSH3” (REVIR THERAPEUTICS, INC., priority 2023, published 2026) are described below.

The subject of this assay is MSH3. The experiment in a line: QPCR assay for levels of MSH3 upon compound treatment in HEK293T or AD293 cells (fold-change of MSH3 transcript, EC50 of MSH3 downregulation; total MSH3 exons 13/14, exons 20/21; Table 8). Type of assay: cell-based. Particulars: for mrna remaining at 1 µM / mrna remaining at 10 µM: Homo sapiens, fold-change of the MSH3 transcript, normalized to GAPDH; for mrna remaining at 1 µM: 1 μM compound; for mrna remaining at 10 µM: 10 μM compound; for EC50: EC50 of MSH3 downregulation, XtalPi. As for the experimental part: HEK293T or AD293 cells were treated with Compound 274 at 1 μM and […]. RNA, cDNA and qPCR was prepared using TaqMan Cells-to-CT Express kit (ThermoFisher Scientific). Taqman assays (ThermoFisher Scientific) were used for quantification of total MSH3 exons 13/14 (cat #4351372, ID #: Hs00988993_ml), total MSH3 exons 20/21 (cat #4351372, ID #: Hs00989000_ml), exon 13/PE14A (Fwd: 5′-[…]; Rev: 5′-[…]; Probe: 5′-[…]) and exon 20/PE21A (Fwd: 5′-[…]; Rev: 5′-[…]; Probe: 5′-[…]) mRNA expression. Taqman GAPDH (cat #4448489, ID #: Hs02758991_g1) was used as a reference for data normalization.

In general, EC50 refers to the concentration that produces a half-maximal response. Read a high EC50 as a need for much substance.

In the case of `CN(c1ccc(N2Cc3ncc(-c4cn(C)nc4C(F)(F)F)cc3C2=O)nn1)[C@H]1C[C@]2(C)CC[C@](C)(C1)N2` [Compound 183, 6-(6-(((1R,3s,5S)-1,5-dimethyl-8-azabicyclo[3.2.1]octan-3-yl)(methyl)amino)pyridazin-3-yl)-3-(1-methyl-3-(trifluoromethyl)-1H-pyrazol-4-yl)-6,7-dihydro-5H-pyrrolo[3,4-b]pyridin-5-one], the mrna remaining at 1 µM is 99% and the mrna remaining at 10 µM amounted to 28%.

For `CN(c1ccc(N2Cc3ncc(-c4cn(C)nc4F)cc3C2=O)nn1)C1CC(C)(C)NC(C)(C)C1` [Compound 187, 3-(3-fluoro-1-methyl-1H-pyrazol-4-yl)-6-(6-(methyl(2,2,6,6-tetramethylpiperidin-4-yl)amino)pyridazin-3-yl)-6,7-dihydro-5H-pyrrolo[3,4-b]pyridin-5-one], the mrna remaining at 1 µM was 92% and the mrna remaining at 10 µM was found to be 25%.

As to `CN(c1ccc(N2Cc3ncc(-c4cnn(C)n4)cc3C2=O)nn1)[C@H]1C[C@]2(C)CC[C@](C)(C1)N2` [Compound 188, 6-(6-(((1R,3s,5S)-1,5-dimethyl-8-azabicyclo[3.2.1]octan-3-yl)(methyl)amino)pyridazin-3-yl)-3-(2-methyl-2H-1,2,3-triazol-4-yl)-6,7-dihydro-5H-pyrrolo[3,4-b]pyridin-5-one], the EC50 amounted to 960 nM, the mrna remaining at 1 µM was 18% and the mrna remaining at 10 µM is 5%.

For `CN(c1ccc(N2Cc3ncc(-c4cnn(C)n4)cc3C2=O)nn1)C1CC(C)(C)NC(C)(C)C1` [Compound 189, 6-(6-(methyl(2,2,6,6-tetramethylpiperidin-4-yl)amino)pyridazin-3-yl)-3-(2-methyl-2H-1,2,3-triazol-4-yl)-6,7-dihydro-5H-pyrrolo[3,4-b]pyridin-5-one], the mrna remaining at 1 µM stood at 73% and the mrna remaining at 10 µM was 23%.

With `Cn1cc(-c2cnc3c(c2)C(=O)N(c2ccc(OC4CC(C)(C)NC(C)(C)C4)nn2)C3)c(F)n1` [Compound 190, 3-(3-fluoro-1-methyl-1H-pyrazol-4-yl)-6-(6-((2,2,6,6-tetramethylpiperidin-4-yl)oxy)pyridazin-3-yl)-6,7-dihydro-5H-pyrrolo[3,4-b]pyridin-5-one], the mrna remaining at 1 µM turned out to be 106% and the mrna remaining at 10 µM came out at 45%.

Turning to `Cn1ncc(-c2cnc3c(c2)C(=O)N(c2ccc(OC4CC(C)(C)NC(C)(C)C4)nn2)C3)n1` [Compound 191, 3-(2-methyl-2H-1,2,3-triazol-4-yl)-6-(6-((2,2,6,6-tetramethylpiperidin-4-yl)oxy)pyridazin-3-yl)-6,7-dihydro-5H-pyrrolo[3,4-b]pyridin-5-one], the mrna remaining at 1 µM was 45% and the mrna remaining at 10 µM came to 17%.

In the case of `Cc1nc(C)c(-c2cnc3c(c2)C(=O)N(c2ccc(O[C@@H]4C[C@]5(C)CC[C@](C)(C4)N5)nn2)C3)s1` [Compound 194, 6-(6-(((1R,3r,5S)-1,5-dimethyl-8-azabicyclo[3.2.1]octan-3-yl)oxy)pyridazin-3-yl)-3-(2,4-dimethylthiazol-5-yl)-6,7-dihydro-5H-pyrrolo[3,4-b]pyridin-5-one], the mrna remaining at 1 µM came out at 224% and the mrna remaining at 10 µM is 92%.

Turning to `Cc1nc(C)c(-c2cnc3c(c2)C(=O)N(c2cnc(N(C)C4CC(C)(C)NC(C)(C)C4)nn2)C3)s1` [Compound 195, 3-(2,4-dimethylthiazol-5-yl)-6-(3-(methyl(2,2,6,6-tetramethylpiperidin-4-yl)amino)-1,2,4-triazin-6-yl)-6,7-dihydro-5H-pyrrolo[3,4-b]pyridin-5-one], the mrna remaining at 1 µM was 59% and the mrna remaining at 10 µM was 42%.

For `Cc1nc(C)c(-c2cnc3c(c2)C(=O)N(c2cnc(N(C)[C@H]4C[C@]5(C)CC[C@](C)(C4)N5)nn2)C3)s1` [Compound 200, 6-(3-(((1R,3s,5S)-1,5-dimethyl-8-azabicyclo[3.2.1]octan-3-yl)(methyl)amino)-1,2,4-triazin-6-yl)-3-(2,4-dimethylthiazol-5-yl)-6,7-dihydro-5H-pyrrolo[3,4-b]pyridin-5-one], the mrna remaining at 1 µM came to 53% and the mrna remaining at 10 µM came to 53%.

Regarding `Cn1cc(-c2cnc3c(c2)C(=O)N(c2ccc(O[C@H]4C[C@]5(C)CC[C@](C)(C4)N5)nn2)C3)c(C(F)(F)F)n1` [Compound 201, 6-(6-(((1R,3s,5S)-1,5-dimethyl-8-azabicyclo[3.2.1]octan-3-yl)oxy)pyridazin-3-yl)-3-(1-methyl-3-(trifluoromethyl)-1H-pyrazol-4-yl)-6,7-dihydro-5H-pyrrolo[3,4-b]pyridin-5-one], the mrna remaining at 1 µM came to 90% and the mrna remaining at 10 µM was 91%.

With `COc1cc(OC2CC(C)(C)NC(C)(C)C2)nnc1N1Cc2ncc(-c3cn(C)nc3C)cc2C1=O` [Compound 203, 3-(1,3-dimethyl-1H-pyrazol-4-yl)-6-(4-methoxy-6-((2,2,6,6-tetramethylpiperidin-4-yl)oxy)pyridazin-3-yl)-6,7-dihydro-5H-pyrrolo[3,4-b]pyridin-5-one], the mrna remaining at 1 µM is 56% and the mrna remaining at 10 µM amounted to 62%.

In the case of `Cc1nn(C)cc1-c1cnc2c(c1)C(=O)N(c1ccc(OC3CC(C)(C)NC4(CC4)C3)nn1)C2` (stereo not drawn) [Compound 205, 3-(1,3-dimethyl-1H-pyrazol-4-yl)-6-(6-((5,5-dimethyl-4-azaspiro[2.5]octan-7-yl)oxy)pyridazin-3-yl)-6,7-dihydro-5H-pyrrolo[3,4-b]pyridin-5-one], the EC50 was 1420 nM, the mrna remaining at 1 µM is 90% and the mrna remaining at 10 µM turned out to be 14%.

As to `Cc1nn(C)nc1-c1cnc2c(c1)C(=O)N(c1ccc(O[C@H]3C[C@]4(C)CC[C@](C)(C3)N4)nn1)C2` [Compound 206, 3-(2,5-dimethyl-2H-1,2,3-triazol-4-yl)-6-(6-(((1R,3s,5S)-1,5-dimethyl-8-azabicyclo[3.2.1]octan-3-yl)oxy)pyridazin-3-yl)-6,7-dihydro-5H-pyrrolo[3,4-b]pyridin-5-one], the midpoint of the response, the EC50, lay at 507 nM; the mrna remaining at 1 µM stood at 36%; the mrna remaining at 10 µM was 13%.

Regarding `Cc1nn(C)cc1-c1cnc2c(c1)C(=O)N(c1ccc(NC3CC(C)(C)NC(C)(C)C3)nn1)C2` [Compound 207, 3-(1,3-dimethyl-1H-pyrazol-4-yl)-6-(6-((2,2,6,6-tetramethylpiperidin-4-yl)amino)pyridazin-3-yl)-6,7-dihydro-5H-pyrrolo[3,4-b]pyridin-5-one], the EC50 is ~3050 nM, the mrna remaining at 1 µM is 108% and the mrna remaining at 10 µM turned out to be 18%.

For `Cc1nn(C)cc1-c1cnc2c(c1)C(=O)N(c1ccc(O[C@@H]3CC(C)(C)NC(C)(C)[C@@H]3F)nn1)C2` [Compound 211, 3-(1,3-dimethyl-1H-pyrazol-4-yl)-6-(6-(((3S,4R)-3-fluoro-2,2,6,6-tetramethylpiperidin-4-yl)oxy)pyridazin-3-yl)-6,7-dihydro-5H-pyrrolo[3,4-b]pyridin-5-one], the mrna remaining at 1 µM was 90% and the mrna remaining at 10 µM was found to be 55%.

With `Cc1nn(C)cc1-c1cnc2c(c1)C(=O)N(c1ccc(O[C@@H]3C[C@@]4(C)CC[C@](C)(N4)[C@@H]3F)nn1)C2` [Compound 214, 3-(1,3-dimethyl-1H-pyrazol-4-yl)-6-(6-(((1S,2S,3R,5R)-2-fluoro-1,5-dimethyl-8-azabicyclo[3.2.1]octan-3-yl)oxy)pyridazin-3-yl)-6,7-dihydro-5H-pyrrolo[3,4-b]pyridin-5-one], the mrna remaining at 1 µM was found to be 95% and the mrna remaining at 10 µM was 24%.

For `Cc1nn(C)cc1-c1cnc2c(c1)C(=O)N(c1ccc(O[C@@H]3C[C@@]4(C)CC[C@](C)(N4)[C@H]3F)nn1)C2` [Compound 215, 3-(1,3-dimethyl-1H-pyrazol-4-yl)-6-(6-(((1S,2R,3R,5R)-2-fluoro-1,5-dimethyl-8-azabicyclo[3.2.1]octan-3-yl)oxy)pyridazin-3-yl)-6,7-dihydro-5H-pyrrolo[3,4-b]pyridin-5-one], the mrna remaining at 1 µM was 97% and the mrna remaining at 10 µM is 76%.

For the compound `CN(c1ncc(N2Cc3ncc(-c4cn(C)nc4F)cc3C2=O)nn1)[C@H]1C[C@]2(C)CC[C@](C)(C1)N2` [Compound 217, 6-(3-(((1R,3s,5S)-1,5-dimethyl-8-azabicyclo[3.2.1]octan-3-yl)(methyl)amino)-1,2,4-triazin-6-yl)-3-(3-fluoro-1-methyl-1H-pyrazol-4-yl)-6,7-dihydro-5H-pyrrolo[3,4-b]pyridin-5-one], the mrna remaining at 1 µM stood at 92% and the mrna remaining at 10 µM came to 78%.

Regarding `Cc1nn(C)cc1-c1cnc2c(c1)C(=O)N(c1ccc(OC3CCNC(C)(C)C3)nn1)C2` (stereo not drawn) [Compound 226, 3-(1,3-dimethyl-1H-pyrazol-4-yl)-6-(6-((2,2-dimethylpiperidin-4-yl)oxy)pyridazin-3-yl)-6,7-dihydro-5H-pyrrolo[3,4-b]pyridin-5-one], the mrna remaining at 1 µM turned out to be 86% and the mrna remaining at 10 µM was determined as 58%.

On to `Cc1nn(C)nc1-c1cnc2c(c1)C(=O)N(c1ccc(OC3CC(C)(C)NC4(CC4)C3)nn1)C2` (stereo not drawn) [Compound 228, 3-(2,5-dimethyl-2H-1,2,3-triazol-4-yl)-6-(6-((5,5-dimethyl-4-azaspiro[2.5]octan-7-yl)oxy)pyridazin-3-yl)-6,7-dihydro-5H-pyrrolo[3,4-b]pyridin-5-one], for which the midpoint of the response, the EC50, lay at 792 nM; the mrna remaining at 1 µM is 58%; the mrna remaining at 10 µM is 37%.
